Measured values taken from article PMC10818746, “Inhibition of CYP1A1 Alleviates Colchicine-Induced Hepatotoxicity” (Toxins, 2024).

Experiments:
Type in all cases: in vitro ADME
Conditions in all cases: colchicine 25 µM, NADPH 1 mM, CYP 2 pmol/mL, PBS pH 7.4; mean ± SD (n = 2)
[1] = molecular target: T1, CYP1A2 (Homo sapiens, UniProt P05177); assay: Colchicine metabolism by cDNA-expressed recombinant CYP1A2
T1 construct: purchased Research Institute for Liver Diseases Co., Ltd. (Shanghai, China)
T1 sequence (P05177 1-516): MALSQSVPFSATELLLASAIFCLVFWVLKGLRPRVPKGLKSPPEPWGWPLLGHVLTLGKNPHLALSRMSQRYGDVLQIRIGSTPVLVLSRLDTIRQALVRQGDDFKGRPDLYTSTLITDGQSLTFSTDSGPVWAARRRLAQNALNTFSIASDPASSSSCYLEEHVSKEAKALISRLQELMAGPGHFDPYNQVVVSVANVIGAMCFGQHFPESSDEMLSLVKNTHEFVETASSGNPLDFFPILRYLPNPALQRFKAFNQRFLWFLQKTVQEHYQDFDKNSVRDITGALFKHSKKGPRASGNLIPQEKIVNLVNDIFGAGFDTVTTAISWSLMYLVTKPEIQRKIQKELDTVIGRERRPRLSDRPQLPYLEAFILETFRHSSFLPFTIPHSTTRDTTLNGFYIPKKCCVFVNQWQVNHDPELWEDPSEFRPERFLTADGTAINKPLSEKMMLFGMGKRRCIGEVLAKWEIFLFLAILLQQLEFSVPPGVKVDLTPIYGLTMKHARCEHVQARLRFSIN
Description: (§1) Pre-cooled acetonitrile was used to terminate the reaction, and then centrifugation (4 °C, 12,000 rpm, 20 min) was performed to obtain the sample.
(§2) All samples were analyzed as shown in [17] and are briefly described in Supporting Information. […]
(§3) Supplementary materials and methods
(§4) Reference numbers refer to the main text list
(§5) UHPLC‐Q exactive plus MS Analysis
(§6) All samples were analyzed on a liquid chromatography system including a Vanquish autosampler, Vanquish detector, Vanquish pump (Thremo Fisher Scientific, Santa Clara, CA). Samples were separated on an ACQUITY UPLC HSS T3 column (2.1×100 mm, […], Waters, USA). The injection volume: 5 μL, and the flow rate was 0.3 mL/min.
(§7) Phase A was H2O containing 0.01% formic acid, and phase B was acetonitrile containing 0.01% formic acid. The elution gradient was as follows: 0‐12 mi n, 2‐98% B; 12‐14 min, 2% A; 14‐16 min, 98% A. Other parameters are as follows: column temperature 45 ℃ , flow rate of collision gas and dry gas 9 L/min. Capillary voltage 3.5 kV, temperature 350 ℃ , atomizer pressure 35 psi. Vanquish UHPLC‐Q Exactive plus MS (Thermo Fisher, USA) was collected in both positive modes, operating in full scan mode with 60‐900 m/z. […]

[2] = molecular target: T2, CYP1B1 (Homo sapiens, UniProt Q16678); assay: Colchicine metabolism by cDNA-expressed recombinant CYP1B1
T2 construct: purchased Research Institute for Liver Diseases Co., Ltd. (Shanghai, China)
T2 sequence (Q16678 1-543): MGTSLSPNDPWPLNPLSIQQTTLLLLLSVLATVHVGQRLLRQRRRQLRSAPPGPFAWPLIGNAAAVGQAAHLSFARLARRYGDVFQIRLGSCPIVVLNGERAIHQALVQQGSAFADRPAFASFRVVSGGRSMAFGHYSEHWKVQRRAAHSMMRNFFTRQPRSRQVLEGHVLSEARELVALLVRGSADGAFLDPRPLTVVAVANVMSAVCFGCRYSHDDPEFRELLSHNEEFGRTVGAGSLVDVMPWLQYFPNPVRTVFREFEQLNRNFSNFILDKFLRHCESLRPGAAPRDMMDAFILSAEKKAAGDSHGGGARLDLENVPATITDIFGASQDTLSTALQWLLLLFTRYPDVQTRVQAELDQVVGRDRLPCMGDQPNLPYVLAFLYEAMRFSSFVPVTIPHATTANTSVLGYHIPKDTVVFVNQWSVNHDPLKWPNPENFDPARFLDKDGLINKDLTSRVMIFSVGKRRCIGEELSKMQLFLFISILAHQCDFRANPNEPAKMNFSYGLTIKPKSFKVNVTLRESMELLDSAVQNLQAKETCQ
Description: as §1, §2, §3, §4, §5, §6, §7

[3] = molecular target: T3, CYP2A6 (Homo sapiens, UniProt P11509); assay: Colchicine metabolism by cDNA-expressed recombinant CYP2A6
T3 construct: purchased Research Institute for Liver Diseases Co., Ltd. (Shanghai, China)
T3 sequence (P11509 whole entry): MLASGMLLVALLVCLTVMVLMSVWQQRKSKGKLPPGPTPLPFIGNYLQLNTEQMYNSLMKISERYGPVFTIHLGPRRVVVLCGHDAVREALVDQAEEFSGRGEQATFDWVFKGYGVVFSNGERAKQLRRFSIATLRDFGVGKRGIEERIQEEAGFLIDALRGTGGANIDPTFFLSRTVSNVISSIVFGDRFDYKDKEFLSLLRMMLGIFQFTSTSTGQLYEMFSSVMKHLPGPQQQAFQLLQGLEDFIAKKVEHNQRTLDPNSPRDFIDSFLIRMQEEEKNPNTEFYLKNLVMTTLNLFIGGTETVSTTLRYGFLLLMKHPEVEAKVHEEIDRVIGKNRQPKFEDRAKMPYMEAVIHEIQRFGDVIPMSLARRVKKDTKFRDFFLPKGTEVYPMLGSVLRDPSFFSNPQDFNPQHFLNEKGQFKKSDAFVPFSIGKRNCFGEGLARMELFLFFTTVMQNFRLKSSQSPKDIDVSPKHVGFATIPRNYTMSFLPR
Description: as §1, §2, §3, §4, §5, §6, §7

[4] = molecular target: T4, CYP2D6 (Homo sapiens, UniProt P10635); assay: Colchicine metabolism by cDNA-expressed recombinant CYP2D6
T4 construct: purchased Research Institute for Liver Diseases Co., Ltd. (Shanghai, China)
T4 sequence (P10635 whole entry): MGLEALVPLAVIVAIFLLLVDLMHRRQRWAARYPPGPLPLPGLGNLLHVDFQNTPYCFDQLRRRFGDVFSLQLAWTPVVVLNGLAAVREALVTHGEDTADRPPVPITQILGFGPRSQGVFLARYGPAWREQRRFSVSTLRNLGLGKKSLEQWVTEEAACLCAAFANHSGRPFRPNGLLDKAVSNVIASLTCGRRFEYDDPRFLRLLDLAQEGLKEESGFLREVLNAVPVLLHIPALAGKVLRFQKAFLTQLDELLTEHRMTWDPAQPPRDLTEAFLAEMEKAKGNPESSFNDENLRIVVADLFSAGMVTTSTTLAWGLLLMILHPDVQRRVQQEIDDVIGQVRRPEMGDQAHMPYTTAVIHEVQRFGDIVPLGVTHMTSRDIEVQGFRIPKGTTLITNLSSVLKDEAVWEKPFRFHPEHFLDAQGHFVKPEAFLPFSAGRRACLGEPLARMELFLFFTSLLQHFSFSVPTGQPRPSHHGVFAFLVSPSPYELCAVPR
Description: as §1, §2, §3, §4, §5, §6, §7

[5] = molecular target: T5, CYP3A4 (Homo sapiens, UniProt P08684); assay: Colchicine metabolism by cDNA-expressed recombinant CYP3A4
T5 construct: purchased Research Institute for Liver Diseases Co., Ltd. (Shanghai, China)
T5 sequence (P08684 whole entry): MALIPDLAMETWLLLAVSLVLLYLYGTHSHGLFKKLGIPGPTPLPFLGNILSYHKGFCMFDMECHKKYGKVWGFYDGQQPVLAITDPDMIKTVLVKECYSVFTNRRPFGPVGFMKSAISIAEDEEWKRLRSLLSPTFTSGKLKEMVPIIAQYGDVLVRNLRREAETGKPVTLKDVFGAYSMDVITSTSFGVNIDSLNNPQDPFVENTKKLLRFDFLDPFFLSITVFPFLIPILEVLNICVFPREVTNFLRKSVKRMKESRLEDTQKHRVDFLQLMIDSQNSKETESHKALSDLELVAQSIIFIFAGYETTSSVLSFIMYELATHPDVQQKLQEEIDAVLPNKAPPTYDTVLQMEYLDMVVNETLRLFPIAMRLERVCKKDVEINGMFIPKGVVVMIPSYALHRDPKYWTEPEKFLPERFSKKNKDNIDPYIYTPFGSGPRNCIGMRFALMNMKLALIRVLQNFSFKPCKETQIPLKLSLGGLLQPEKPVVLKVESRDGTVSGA
Description: as §1, §2, §3, §4, §5, §6, §7

| SMILES | peak area of the metabolite after incubation with CYP1A2 as a percentage of the total peak areas from all the CYPs [1] | peak area of the metabolite after incubation with CYP1B1 as a percentage of the total peak areas from all the CYPs [2] | peak area of the metabolite after incubation with CYP2A6 as a percentage of the total peak areas from all the CYPs [3] | peak area of the metabolite after incubation with CYP2D6 as a percentage of the total peak areas from all the CYPs [4] | peak area of the metabolite after incubation with CYP3A4 as a percentage of the total peak areas from all the CYPs [5] |
| --- | --- | --- | --- | --- | --- |
| COc1cc2c(c(OC)c1O)-c1ccc(OC)c(=O)cc1[C@@H](NC(C)=O)CC2 [M1] | 6.36 ± 0.19% | 4.56 ± 1.73% | 5.39 ± 0.90% | 7.91 ± 0.60% | 14.93 ± 1.41% |
| COc1cc2c(c(O)c1OC)-c1ccc(OC)c(=O)cc1[C@@H](NC(C)=O)CC2 [M2] | 0.00 ± 0.00% | 2.53 ± 0.65% | 2.64 ± 0.16% | 3.23 ± 0.56% | 47.73 ± 5.45% |
| COc1cc2c(c(OC)c1OC)-c1ccc(O)c(=O)cc1[C@@H](NC(C)=O)CC2 [M4] | 6.72 ± 0.44% | 7.00 ± 0.10% | 6.66 ± 2.12% | 11.27 ± 3.15% | 12.18 ± 0.70% |
| COc1c(O)cc2c(c1OC)-c1ccc(OC)c(=O)cc1[C@@H](NC(C)=O)C=C2 [M5] | 8.33 ± 0.00% | 7.27 ± 2.20% | 7.26 ± 8.64% | 7.65 ± 11.17% | 7.72 ± 15.62% |
| COc1cc2c(c(OC)c1OC)-c1ccc(OC)c(=O)cc1C=CC2 [M6] | 8.69 ± 0.17% | 7.14 ± 0.77% | 8.25 ± 0.69% | 7.59 ± 0.36% | 6.55 ± 0.65% |
| COc1c(O)cc2c(c1O)-c1ccc(OC)c(=O)cc1[C@@H](NC(C)=O)CC2 [M8] | 8.67 ± 3.80% | 7.48 ± 2.17% | 4.23 ± 0.62% |  | 12.27 ± 1.54% |
